# Source: patent publication US10370364B1, “Substituted chromenes for treatment of fibrosis or non-alcoholic steatohepatitis” (OSTEONEUROGEN INC., priority 2018, dated 2019)
# Where two headings read alike, the source gives them in different places.
# Experiments:
# [1] = Pharmacokinetics in male SD rats (oral and i.v., various formulations); format: in vivo, rat
# Protocol: To examine the pharmacokinetics of the compound after oral administration, rat models were used.
# Male SD rats (weighed 250 to 300 g) were divided into several groups, each consisting of 3 rats, […], after which the amount of the compound present in the plasma was measured with the passage of time. […]
# For effective formulation of the compound of the present invention, the pharmacokinetics of various formulations after oral administration were examined according to the same method as described in Experimental Example 2-4 above.
# [2] = test system: Diseased human lung fibroblasts (DHLF); assay: TGF-β-induced fibrosis of diseased human lung fibroblasts (DHLF); format: cell-based; settings: TGF-β 5 ng/ml, compound 50 μM, 24, 48 or 72 hours
# Protocol: Diseased human lung fibroblasts (DHLF) (Lonza, Swiss) isolated from lung fibrosis patients were seeded into medium, cultured for 24 hours, and then treated with TGF-β (5 ng/ml) to induce fibrosis. Alternatively, the fibroblasts were co-treated with TGF-β and the compound of the present invention (50 μM in DMSO) and cultured for 24, 48 or 72 hours. Next, the degree of differentiation into myofibroblasts was examined with a phase contrast microscope (200×).
# [3] = male, SD, plasma, iv, 1 mg/kg, rat, 1 mpk i.v, Formulation Example 1
# [4] = male, SD, rat, plasma, po, 10 mg/kg, 10 mpk po, Formulation Example 3, NMP/PEG400/Solutol HS/water vehicle
# [5] = male, SD, rat, plasma, po, 10 mg/kg, 10 mpk po, Formulation Example 4, NMP/ethanol/PEG200/saline vehicle
# [6] = male, SD, rat, plasma, po, 10 mg/kg, 10 mpk po, Formulation Example 5, in 30% HPCD aqueous solution
# [7] = male, SD, rat, plasma, po, 200 mg/kg, 200 mpk po, Formulation Example 2
smiles,measurement,setting,value
"COc1ccc(-c2cc(=O)c3c(O)c(OC)c(OCCN4CCNC(=O)C4)cc3o2)cc1OC [Compound 1, 4-(2-((2-(3,4-dimethoxyphenyl)-5-hydroxy-6-methoxy-4-oxo-4H-chromen-7-yl)oxy)ethyl)piperazin-2-one]",plasma profile after oral administration (in words),"[1]; Formulation Example 2 compared to Formulation Example 3, FIG. 25",absorbed rapidly in vivo after oral administration and was maintained in the plasma for a long period of time
same,MRT inf,"[1]; male, SD, plasma, 10 mg/kg, rat, 10 mpk po, Formulation Example 5",3.2 ± 0.7 h
same,half-life,"[1]; male, SD, plasma, 10 mg/kg, rat, 10 mpk po, Formulation Example 5, read-out: t1/2 (converted)",1.9 ± 0.6 h
same,MRT inf,"[1]; male, SD, plasma, 200 mg/kg, rat, 200 mpk po, Formulation Example 2",1.7 ± 0.2 h
same,half-life,"[1]; male, SD, plasma, 200 mg/kg, rat, 200 mpk po, Formulation Example 2, read-out: t½ (converted)",1.5 ± 0.4 h
same,MRT inf,[1]; [3],0.4 h
same,Vd,[1]; [3],3.6 ± 0.25 L/kg
same,C0,"[1]; male, SD, plasma, iv, 1 mg/kg, rat, 1 mpk i.v, Formulation Example 1 (100% DMSO)",506 ± 130 ng/mL
same,clearance,"[1]; male, SD, plasma, iv, 1 mg/kg, rat, 1 mpk i.v, Formulation Example 1, read-out: CLP (converted)",112 mL/min/kg
same,half-life,"[1]; male, SD, plasma, iv, 1 mg/kg, rat, 1 mpk i.v, Formulation Example 1, read-out: t1/2 (converted)",0.38 ± 0.03 h
same,AUC(0-inf),"[1]; male, SD, rat, plasma, iv, 1 mg/kg, 1 mpk i.v, Formulation Example 1",149 ± 3 ng·h/mL
same,AUC(0-t),"[1]; male, SD, rat, plasma, iv, 1 mg/kg, rat, 1 mpk i.v, Formulation Example 1, read-out: AUC(0-t)",147 ± 2.2 ng·h/mL
same,bioavailability,"[1]; male, SD, rat, plasma, po, 10 mg/kg, 10 mpk po, Formulation Example 2",1.4%
same,bioavailability,"[1]; male, SD, rat, plasma, po, 10 mg/kg, 10 mpk po, Formulation Example 3",~9%
same,AUC(0-inf),[1]; [4],155 ± 7.5 ng·h/mL
same,Tmax,[1]; [4],0.25 ± 0.1 h
same,bioavailability,"[1]; male, SD, rat, plasma, po, 10 mg/kg, 10 mpk po, Formulation Example 4",~3%
same,AUC(0-inf),[1]; [5],46.4 ± 14.1 ng·h/mL
same,Tmax,[1]; [5],0.25 h
same,bioavailability,"[1]; male, SD, rat, plasma, po, 10 mg/kg, 10 mpk po, Formulation Example 5",~7%
same,Cmax,"[1]; male, SD, rat, plasma, po, 10 mg/kg, 10 mpk po, Formulation Example 5 (30% (w/v) HPCD aqueous solution)",393 ± 299 ng/mL
same,AUC(0-inf),[1]; [6],1080 ± 327 ng·h/mL
same,Tmax,[1]; [6],1.3 ± 0.6 h
same,Cmax,"[1]; male, SD, rat, plasma, po, 10 mg/kg, rat, 10 mpk po, Formulation Example 2 (Tween80: 0.5% CMC 1:99)",22.3 ± 8.9 ng/mL
same,Tmax,"[1]; male, SD, rat, plasma, po, 10 mg/kg, rat, 10 mpk po, Formulation Example 2, in Tween80:0.5% CMC aqueous vehicle",0.4 ± 0.1 h
same,AUC(0-t),"[1]; male, SD, rat, plasma, po, 10 mg/kg, rat, 10 mpk po, Formulation Example 2, in Tween80:0.5% CMC aqueous vehicle, read-out: AUC(0-t)",20.4 ± 6.2 ng·h/mL
same,Cmax,"[1]; male, SD, rat, plasma, po, 10 mg/kg, rat, 10 mpk po, Formulation Example 3 (NMP: PEG400: SOLUTOL HS: water 10:20:20:50)",62.2 ± 37.5 ng/mL
same,AUC(0-t),"[1]; male, SD, rat, plasma, po, 10 mg/kg, rat, 10 mpk po, Formulation Example 3, NMP/PEG400/Solutol HS/water vehicle, read-out: AUC(0-t)",126 ± 19.1 ng·h/mL
same,Cmax,"[1]; male, SD, rat, plasma, po, 10 mg/kg, rat, 10 mpk po, Formulation Example 4 (NMP: ethanol: PEG200: normal saline 5:10:30:55)",46.7 ± 8.8 ng/mL
same,AUC(0-t),"[1]; male, SD, rat, plasma, po, 10 mg/kg, rat, 10 mpk po, Formulation Example 4, NMP/ethanol/PEG200/saline vehicle, read-out: AUC(0-t)",42.5 ± 16 ng·h/mL
same,AUC(0-t),"[1]; male, SD, rat, plasma, po, 10 mg/kg, rat, 10 mpk po, Formulation Example 5, in 30% HPCD aqueous solution, read-out: AUC(0-t)",1000 ± 314 ng·h/mL
same,AUC(0-inf),[1]; [7],426 ± 67.7 ng·h/mL
same,Tmax,[1]; [7],1 h
same,bioavailability,[1]; [7],1.4%
same,Cmax,"[1]; male, SD, rat, plasma, po, 200 mg/kg, rat, 200 mpk po, Formulation Example 2 (Tween80: 0.5% CMC 1:99)",261 ± 41.4 ng/mL
same,AUC(0-t),"[1]; male, SD, rat, plasma, po, 200 mg/kg, rat, 200 mpk po, Formulation Example 2, read-out: AUC (0-24)",420 ± 69.3 ng·h/mL
same,AUC(0-t),"[1]; male, SD, rat, plasma, po, 200 mg/kg, rat, 200 mpk po, Formulation Example 2, read-out: AUC(0-t)",420 ± 69.3 ng·h/mL
same,bioavailability,"[1]; male, SD, rat, plasma, po, Formulation Example 2, dose not given",1.4%
same,AUC_% Extrap (obs),"[1]; rat, 1 mpk i.v, Formulation Example 1",1.8 ± 0.5%
same,AUC_% Extrap (obs),"[1]; rat, 10 mpk po, Formulation Example 5",7.0 ± 5.2%
same,absorption after oral administration (in words),"[1]; rat, 200 mpk po, 0.5% CMC and about 1% Tween-80",absorbed rapidly in vivo after oral administration
same,AUC_% Extrap (obs),"[1]; rat, 200 mpk po, Formulation Example 2",1.6 ± 0.7%
same,degree of differentiation into myofibroblasts (fibrosis symptom),[2],showed little or no fibrosis symptom
same,growth of the cells,[2],inhibited
